# Test results: patent US5886016A, “Benzopyranopyrazolyl derivatives for the treatment of inflammation” (G.D. Searle & Co., priority 1997, dated 1999)
# pIC50: −log10 of the molar value.
# Legend:
# Human COX-2 = molecular target: T1, Human COX-2 (Homo sapiens, UniProt P35354); assay: Evaluation of COX-2 activity in vitro (recombinant enzyme, PGE2 ELISA); assay type: biochemical; conditions: 10 μM arachidonic acid; 10-20 minutes pre-incubation; pH 8.0
# T1 construct: A 2.0 kb fragment containing the coding region of either human or murine COX-1 or human or murine COX-2; made in house; host or cells: SF9 insect cells (recombinant baculovirus, pVL1393); CHAPS-solubilized membranes
# T1 sequence (P35354 18-604): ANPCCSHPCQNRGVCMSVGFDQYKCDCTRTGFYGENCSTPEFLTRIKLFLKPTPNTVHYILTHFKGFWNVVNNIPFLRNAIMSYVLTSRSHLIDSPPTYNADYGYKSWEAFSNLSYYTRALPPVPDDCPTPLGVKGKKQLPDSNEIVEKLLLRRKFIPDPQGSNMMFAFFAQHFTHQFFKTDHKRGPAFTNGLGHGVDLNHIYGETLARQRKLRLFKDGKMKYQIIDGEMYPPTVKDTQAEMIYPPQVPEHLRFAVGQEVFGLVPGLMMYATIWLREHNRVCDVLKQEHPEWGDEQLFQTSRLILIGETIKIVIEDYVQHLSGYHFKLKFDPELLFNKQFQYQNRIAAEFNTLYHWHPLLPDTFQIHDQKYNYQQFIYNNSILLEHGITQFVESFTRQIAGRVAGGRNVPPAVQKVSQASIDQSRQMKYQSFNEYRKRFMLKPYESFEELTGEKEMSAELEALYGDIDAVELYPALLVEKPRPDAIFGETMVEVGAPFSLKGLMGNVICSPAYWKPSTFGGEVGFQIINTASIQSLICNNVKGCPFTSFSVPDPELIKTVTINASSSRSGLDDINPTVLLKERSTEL
# Method: The COX-2 inhibition activity of the compounds of this invention illustrated in the Examples was determined by the following methods.
# (§1) a. Preparation of recombinant COX baculoviruses
# (§2) A 2.0 kb fragment containing the coding region of either human or murine COX-1 or human or murine COX-2 was cloned into a BamH1 site of the baculovirus transfer vector pVL1393 (Invitrogen) to generate the baculovirus transfer vectors for COX-1 and COx-2 in a manner similar to the method of D. R. O'Reilly et al (Baculovirus Expression Vectors: A Laboratory Manual (1992)). Recombinant baculoviruses were isolated by transfecting 4 μg of baculovirus transfer vector DNA into SF9 insect cells (2>10e8) along with 200 ng of linearized baculovirus plasmid DNA by the calcium phosphate method. See M. D. Summers and G. E. Smith, A Manual of Methods for Baculovirus Vectors and Insect Cell Culture Procedures, Texas Agric. Exp. Station Bull. 1555 (1987). Recombinant viruses were purified by three rounds of plaque purification and high titer (10E7-10E8 pfu/ml) stocks of virus were prepared. For large scale production, SF9 insect cells were infected in 10 liter fermentors (0.5×10^6 /ml) with the recombinant baculovirus stock such that the multiplicity of infection was 0.1. After 72 hours the cells were centrifuged and the cell pellet homogenized in Tris/Sucrose (50 mM: 25%, pH 8.0) containing 1% 3-[(3-cholamidopropyl)dimethylammoniol]-1-propanesulfonate (CHAPS). The homogenate was centrifuged at 10,000×G for 30 minutes, and the resultant supernatant was stored at -80° C. before being assayed for Cox activity.
# (§3) COX activity was assayed as PGE2 formed/μg protein/time using an ELISA to detect the prostaglandin released. CHAPS-solubilized insect cell membranes containing the appropriate COX enzyme were incubated in a potassium phosphate buffer (50 mM, pH 8.0) containing epinephrine, phenol, and heme with the addition of arachidonic acid (10 μM). Compounds were pre-incubated with the enzyme for 10-20 minutes prior to the addition of arachidonic acid. Any reaction between the arachidonic acid and the enzyme was stopped after ten minutes at 37° C./room temperature by transferring 40 μl of reaction mix into 160 μl ELISA buffer and 25 μM indomethacin. The PGE2 formed was measured by standard ELISA technology (Cayman Chemical).
# Human COX-1 = molecular target: T2, Human COX-1 (Homo sapiens, UniProt P23219); assay: Evaluation of COX-1 activity in vitro (recombinant enzyme, PGE2 ELISA); assay type: biochemical; conditions: 10 μM arachidonic acid; 10-20 minutes pre-incubation; pH 8.0
# T2 construct: A 2.0 kb fragment containing the coding region of either human or murine COX-1 or human or murine COX-2; made in house; host or cells: SF9 insect cells (recombinant baculovirus, pVL1393); CHAPS-solubilized membranes
# Source text: Evaluation of COX-1 and COX-2 activity in vitro
# as §1, §2
# b. Assay for COX-1 and COX-2 activity:
# as §3
# [1] = test system: hyperalgesic foot withdrawal (rat carrageenan); assay: Rat Carrageenan-induced Analgesia Test; assay type: in vivo, Male Sprague-Dawley rats; conditions: @ 30 mg/kg body weight; oral; 3 hours after carrageenan
# Method: Rat Carrageenan-induced Analgesia Test
# Male Sprague-Dawley rats were treated as previously described for the Carrageenan Foot Pad Edema test. Three hours after the injection of the carrageenan, the rats were placed in a special plexiglass container with a transparent floor having a high intensity lamp as a radiant heat source, positionable under the floor. After an initial twenty minute period, thermal stimulation was begun on either the injected foot or on the contralateral uninjected foot. A photoelectric cell turned off the lamp and timer when light was interrupted by paw withdrawal. The time until the rat withdraws its foot was then measured. The withdrawal latency in seconds was determined for the control and drug-treated groups, and percent inhibition of the hyperalgesic foot withdrawal determined.
# [2] = test system: carrageenan foot edema (rat paw); assay: Rat Carrageenan Foot Pad Edema Test; assay type: in vivo, Male Sprague-Dawley rats; conditions: @ 30 mg/kg body weight; oral; 3 hours after carrageenan
# Method: Rat Carrageenan Foot Pad Edema Test
# Male Sprague-Dawley rats were selected in each group so that the average body weight was as close as possible. Rats were fasted with free access to water for over sixteen hours prior to the test. […] One hour later a subplantar injection of 0.1 mL of 1% solution of carrageenan/sterile 0.9% saline was administered and the volume of the injected foot was measured with a displacement plethysmometer connected to a pressure transducer with a digital indicator. Three hours after the injection of the carrageenan, the volume of the foot was again measured.
# T2 sequence (P23219 24-599): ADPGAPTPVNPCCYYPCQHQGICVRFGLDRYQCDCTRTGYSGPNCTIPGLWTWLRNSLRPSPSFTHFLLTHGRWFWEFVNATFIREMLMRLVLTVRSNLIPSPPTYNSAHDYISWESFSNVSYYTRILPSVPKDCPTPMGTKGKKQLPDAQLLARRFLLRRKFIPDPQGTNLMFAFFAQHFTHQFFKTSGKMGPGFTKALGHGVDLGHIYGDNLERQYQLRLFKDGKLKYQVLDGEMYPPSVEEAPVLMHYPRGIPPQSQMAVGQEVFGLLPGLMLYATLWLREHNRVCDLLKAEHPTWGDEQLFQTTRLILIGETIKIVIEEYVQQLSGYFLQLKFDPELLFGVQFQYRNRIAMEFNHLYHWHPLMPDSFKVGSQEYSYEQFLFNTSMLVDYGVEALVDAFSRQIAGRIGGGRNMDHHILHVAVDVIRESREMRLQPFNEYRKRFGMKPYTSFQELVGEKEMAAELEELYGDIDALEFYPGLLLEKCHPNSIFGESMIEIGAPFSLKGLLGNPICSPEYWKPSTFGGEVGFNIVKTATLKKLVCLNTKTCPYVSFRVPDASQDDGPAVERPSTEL
pIC50 (Human COX-2),pIC50 (Human COX-1),Compound,ANALGESIA % Inhibition [1] [%],RAT PAW EDEMA % Inhibition [2] [%]
> 7.00,< 4.00,"Cc1ccc2c(c1)COc1c(C(F)(F)F)nn(-c3ccc(S(N)(=O)=O)cc3)c1-2 [Example 28, 4-[1,5-dihydro-7-methyl-3-(trifluoromethyl)-[2]benzopyrano[4,3-c]pyrazol-1-yl]benzenesulfonamide]",–,–
7.00,6.10,N#Cc1nn(-c2ccc(S(N)(=O)=O)cc2)c2c1SCc1cc(F)ccc1-2 [Example 35],–,–
–,5.15,"NS(=O)(=O)c1ccc(-n2nc(C(F)(F)F)c3c2-c2ccccc2OC3)cc1 [Example 3, 4-[1,4-dihydro-3-(trifluoromethyl)-[1]benzopyrano[4,3-c]pyrazol-1-yl]benzenesulfonamide]",–,–
5.77,5.17,NS(=O)(=O)c1ccc(-n2nc(CO)c3c2-c2ccc(F)cc2CS3)cc1 [Example 36],–,–
> 7.00,5.92,"Cc1ccc2c(c1)CSc1c(C(F)F)nn(-c3ccc(S(N)(=O)=O)cc3)c1-2 [Example 24, 4-[3-(difluoromethyl)-1,5-Dihydro-7-methyl-[2]benzothiopyrano[4,3-c]pyrazol-1-yl]benzenesulfonamide]",–,–
–,–,"COc1ccc2c(c1F)CSc1c(C(F)(F)F)nn(-c3ccc(S(N)(=O)=O)cc3)c1-2 [Example 1, 4-[6-fluoro-1,5-dihydro-7-methoxy-3-(trifluoromethyl)-[2]benzothiopyrano[4,3-c]pyrazol-1-yl]benzenesulfonamide]",35,43
6.52,< 4.00,"COc1c(F)cc2c(c1F)CSc1c(C(F)(F)F)nn(-c3ccc(S(N)(=O)=O)cc3)c1-2 [Example 29, 4-[6,8-difluoro-1,5-dihydro-7-methoxy-3-(trifluoromethyl)[2]benzothiopyrano[4,3-c]pyrazol-1-yl]benzenesulfonamide]",–,–
> 7.00,5.82,"NS(=O)(=O)c1ccc(-n2nc(C(F)F)c3c2-c2ccc(Cl)cc2CS3)cc1 [Example 25, 4-[7-chloro-3-(difluoromethyl)-1,5-dihydro-[2]benzothiopyrano[4,3-c]pyrazol-1-yl]benzenesulfonamide]",–,–
> 7.00,4.97,"Cc1ccc2c(c1)COc1c(C(F)F)nn(-c3ccc(S(N)(=O)=O)cc3)c1-2 [Example 30, 4-[3-(difluoromethyl)-1,5-dihydro-7-methyl[2]benzopyrano[4,3-c]pyrazol-1-yl]benzenesulfonamide]",–,–
> 7.00,> 7.00,NS(=O)(=O)c1ccc(-n2nc(C(F)(F)F)c3c2-c2ccc4c(c2CS3)OCO4)cc1 [Example 33],–,–
–,5.01,"NS(=O)(=O)c1ccc(-n2nc(C(F)(F)F)c3c2-c2ccccc2SC3)cc1 [Example 7, 4-[1,4-dihydro-3-(trifluoromethyl)-[1]benzothiopyrano[4,3-c]pyrazol-1-yl]benzenesulfonamide]",–,–
> 7.00,6.70,"COc1ccc2c(c1)COc1c(C(F)(F)F)nn(-c3ccc(S(N)(=O)=O)cc3)c1-2 [Example 26, 4-[1,5-dihydro-7-methoxy-3-(trifluoromethyl)-[2]benzopyrano[4,3-c]pyrazol-1-yl]benzenesulfonamide]",–,–
–,–,"NS(=O)(=O)c1ccc(-n2nc(C(F)(F)F)c3c2-c2cc(Cl)sc2CS3)cc1 [Example 21, 4-[7-chloro-1,5-dihydro-3-trifluoromethylthieno[3',2':4,5]thiopyrano[3,2-c]pyrazol-1-yl]benzenesulfonamide]",14,–
5.38,< 4.00,"CN(C)C=NS(=O)(=O)c1ccc(-n2nc(C#N)c3c2-c2ccc(F)cc2CS3)cc1 [Example 34, 4-(3-cyano-1,5-dihydro-7-fluoro-[2]benzothiopyrano[4,3-c]pyrazol-1-yl) -N-[(dimethylamino)methylene]-benzenesulfonamide]",–,–
4.22,< 4.00,"COc1cc2c(c(OC)c1OC)-c1c(c(C(F)(F)F)nn1-c1ccc(S(N)(=O)=O)cc1)OC2 [Example 27, 4-[1,5-dihydro-7.8,9-trimethoxy-3-(trifluoromethyl)-[2]benzopyrano[4,3-c]pyrazol-1-yl]benzenesulfonamide]",–,–
> 7.00,6.70,"NS(=O)(=O)c1ccc(-n2nc(C(F)F)c3c2-c2ccc(F)cc2CS3)cc1 [Example 31, 4-[3-(difluoromethyl)-1,5-dihydro-7-fluoro-[2]benzothiopyrano[4,3-c]pyrazol-1-yl]benzenesulfonamide]",–,–
6.70,5.05,"CS(=O)(=O)c1ccc(-n2nc(C(F)(F)F)c3c2-c2ccc(F)cc2CS3)cc1 [Example 32, 1,5-dihydro-7-fluoro-1-[(4-methylsulfonyl)phenyl]-3-(trifluoromethyl)-[2]benzothiopyrano[4,3,c]pyrazole]",–,–
–,6.40,"NS(=O)(=O)c1ccc(-n2nc(C(F)(F)F)c3c2-c2ccccc2CS3)cc1 [Example 16, 4-[1,5-dihydro-3-(trifluoromethyl)-[2]benzothiopyrano[4 3-c]pyrazol-1-yl]benzenesulfonamide]",–,–
